Measured values published in ChEMBL document CHEMBL4476865, “Neurotrypsin inhibitors” (2013).

What was measured:
Neurotrypsin = molecular target: T1, Neurotrypsin (Homo sapiens, UniProt P56730); test: Inhibition of human neurotrypsin
T1 sequence (P56730 whole entry): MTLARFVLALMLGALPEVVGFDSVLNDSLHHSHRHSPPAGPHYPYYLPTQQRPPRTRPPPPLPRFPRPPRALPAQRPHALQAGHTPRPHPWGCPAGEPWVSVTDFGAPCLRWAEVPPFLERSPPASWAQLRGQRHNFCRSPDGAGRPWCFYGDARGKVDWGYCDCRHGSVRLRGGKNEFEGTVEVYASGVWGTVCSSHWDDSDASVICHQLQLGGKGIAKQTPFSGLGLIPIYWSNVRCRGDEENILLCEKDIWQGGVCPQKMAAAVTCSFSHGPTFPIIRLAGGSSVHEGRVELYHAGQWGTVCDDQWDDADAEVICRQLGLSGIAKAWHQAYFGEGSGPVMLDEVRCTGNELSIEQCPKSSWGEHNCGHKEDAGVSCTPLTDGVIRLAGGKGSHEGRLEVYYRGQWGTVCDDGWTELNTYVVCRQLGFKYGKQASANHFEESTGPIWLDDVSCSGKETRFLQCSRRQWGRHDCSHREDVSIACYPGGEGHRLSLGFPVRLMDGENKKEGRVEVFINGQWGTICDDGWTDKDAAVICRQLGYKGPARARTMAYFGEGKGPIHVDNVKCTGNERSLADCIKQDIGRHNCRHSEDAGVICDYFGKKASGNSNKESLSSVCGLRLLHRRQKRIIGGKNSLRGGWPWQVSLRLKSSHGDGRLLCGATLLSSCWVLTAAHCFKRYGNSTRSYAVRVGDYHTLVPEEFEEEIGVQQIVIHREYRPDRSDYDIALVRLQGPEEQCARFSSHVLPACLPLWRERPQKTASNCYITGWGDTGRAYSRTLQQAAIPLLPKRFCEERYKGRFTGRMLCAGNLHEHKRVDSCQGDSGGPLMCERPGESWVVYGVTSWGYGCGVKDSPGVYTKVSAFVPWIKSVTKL

[1] = Toxicity in C57/BL6 mouse assessed as weight loss dosed 3 times at 25 mg/kg, ip equivalent of active ingredient administered with 8 hrs gap between dose 1 and dose 2 and 16 hrs gap between dose 2 and dose 3 (reference value: 5.67%); format: organism-based; conditions: in vivo
[2] = Inhibition of hog trypsin assessed as reduction in liberation of free para-nitroanilide using S-2222 substrate incubated for 20 to 30 mins; parameters: species or system Sus scrofa

IC50 (Neurotrypsin) | IC50 [2] | SMILES | Activity [1]
3.3 µM |  | O=C(NCc1ccc(Cl)s1)c1ccc(NC(=O)c2ccc(-c3nc4cc(Cl)c(Cl)cc4[nH]3)cc2)c(C(=O)O)c1 | 
 | > 150 µM | NCCCC[C@H](N)C(=O)O.O=C(Nc1ccc(Cl)cc1)c1ccc(NC(=O)c2ccc(-c3nc4cc(Cl)c(Cl)cc4[nH]3)cc2)c(C(=O)O)c1 | 5.52%
